Legend:
STAT3 = STAT3 reporter gene assay (luciferase), LNCaP stable cell line pSTAT3-TA-luc, IL-6 stimulation; format: cell-based, human; conditions: Homo sapiens
Experimental: 1-1) Experiment on the Inhibition of STAT3 Activity
A human prostate cancer cell line (LNCaP stable cell line; plasmid pSTAT3-TA-luc), which contains a stably operating STAT3 promoter, was cultured in RPMI1640 medium (Cat No. 11875, Life Technologies) containing 10% fetal bovine serum (FBS) (Cat No. SH30396, Thermo Scientific) and 150 μg/mL G-418 solution (Cat No. 04 727 894 001, Roche). The reporter gene assay using LNCaP stable cell line was performed in RPMI1640 medium containing 3% DCC-FBS without G-418 solution. LNCaP stable cells were plated in two (2) white 96-well plates with 30,000 cells/50 μL in each well. The cells were cultured at 37° C., under 5% CO2 for 24 hours, and then treated with the compounds listed in Examples which were diluted in various concentrations. Subsequently, IL-6 was added to each well with a final concentration of 10 ng/mL. Upon completion of the treatment with the compounds and IL-6, the cells were cultured at 37° C., under 5% CO2 for 24 hours. The plates were observed under microscope and drug precipitation and particular findings were investigated and recorded.
(§1) The luciferase assay and the cell viability assay were performed respectively with one of the two plates. For the luciferase assay, the liquid media in the 96-well plate was removed, and then, 20 μL, of passive cell lysis buffer was added to each well. After shaking the plate for 30 minutes, luciferase activities of each well were measured in a PHERAstar™ microplate reader (BMG LABTECH) using a luciferase assay system (Cat No. E1501, Promega). For the cell viability assay, the 96-well plate was placed at room temperature for 30 minutes, added with 20 μL/well of CellTiter-Glo solution (Cat No. G7573, Promega), and shaken for 10 minutes in order to measure cytotoxicity caused by the compounds listed in Examples with a PHERAstar™ microplate reader (BMG LABTECH). Wells without 0.1% DMSO and stimulation were used as a negative control and wells with 0.1% DMSO and stimulation were used as a positive control.
(§2) The results of evaluation on the inhibitory effect of the compounds listed in the Examples on the dimerization of STAT3 and STAT1 obtained via the STAT3 and STAT1 reporter gene assays are shown in Table 9 below.

STAT1 = STAT1 reporter gene assay (luciferase), U2OS stable cell line pGL4-STAT1-TA-luc, IFN-γ stimulation; format: cell-based, human; conditions: Homo sapiens, IFN-γ 50 ng/mL, 8 hours, read-out: IC50 (μM) pSTAT1
Experimental: 1-2) Experiment on the Inhibition of STAT1 Activity
A human osteosarcoma cell line (U2OS stable cell line; pGL4-STAT1-TA-luc), which contains a stably operating STAT1 promoter, was cultured in McCoy 5′A medium (Cat No. 16600, Life Technologies) containing 10% FBS (Cat No. SH30396, Thermo Scientific) and 1000 μg/mL G418 solution (Cat No. 04 727 894 001, Roche). The reporter gene assay using U2OS stable cell line was performed in McCoy 5′A medium containing 10% FBS without G-418 solution. U2OS stable cells were plated in two (2) white 96-well plates with 25,000 cells/50 pt in each well. The cells were cultured at 37° C., under 5% CO2 for 24 hours, and then treated with the compounds listed in Examples which were diluted in various concentrations. Subsequently, IFN-γ was added to each well with a final concentration of 50 ng/mL. Upon completion of the treatment with the compounds and IFN-γ, the cells were cultured at 37° C., under 5% CO2 for 8 hours. The plates were observed under microscope and drug precipitation and particular findings were investigated and recorded.
as §1, with “of” for “of the”, “μL” for “μL,”
as §2

[1] = tested on: NCI-N87 stomach cancer cell line; assay: Cell growth inhibition assay, NCI-N87 (CellTiter-Glo); format: cell-based; conditions: Homo sapiens; NCI-N87, 5,000 cells/well, 96 hours
Experimental: The inhibitory effects of the compounds of the present invention against the growth of cancer cells were evaluated as shown below. The cancer cell lines including prostate cancer cell lines (LNCaP, DU-145), stomach cancer cell line (NCI-N87), and breast cancer cell lines (MDA-MB-468) were cultured under the protocol provided by each supplier. A medium supplemented with 10 ng/mL of IL-6 was used for LNCaP, a prostate cancer cell line, when treated with a drug. Each type of cells to be used in experiments was sub-cultured in a 96-well plate by counting the exact number of cells using Tali™ Image-based Cytometer (Life Technologies). In a 96-well plate, DU-145 was employed with 3,000 cells/well; NCI-N87 was employed with 5,000 cells/well; and LNCaP and MDA-MB-468 were employed with 10,000 cells/well. The cells were treated with the compounds listed in Examples which were diluted in various concentrations. Upon completion of the compounds treatment, LNCaP, DU-145, NCI-N87 cells were cultured at 37° C. under 5% CO2 for 96 hours, and MDA-MB-468 cells were cultured at 37° C. in air for 96 hours. Subsequently, the cells were observed under microscope and drug precipitation and particular findings were investigated and recorded. And then, the 96-well plate was placed at room temperature for 30 minutes, added with 20 pt/well of CellTiter-Glo solution (Cat No. G7573, Promega) and shaken for 10 minutes, followed by being subjected to the measurement using PHERAstar™ microplate reader (BMG LABTECH) according to the supplier's general luminometer protocol. Wells where only culture liquid added without cell plating were used as a negative control, whereas wells where culture liquid containing 0.1% DMSO instead of the compounds listed in Examples were used as a positive control.

IC50 (STAT3) [µM] | IC50 (STAT1) [µM] | IC50 [1] [µM] | Compound
0.0083 | > 50 | 0.01 | C=CCOc1cc(OC(F)(F)F)cc(C(C)(C)c2cc(Cl)cc(NC(=O)c3cc4cc(C(C)(C)S(C)(=O)=O)ccc4s3)c2)c1 [Example 14, N-(3-(2-(3-(allyloxy)-5-(trifluoromethoxy)phenyl)propan-2-yl)-5-chlorophenyl)-5-(2-(methylsulfonyl)propan-2-yl)benzo[b]thiophene-2-carboxamide]
0.0057 | > 50 | 0.0093 | CC(C)(c1cc(Cl)cc(NC(=O)c2cc3cc(C(C)(C)S(C)(=O)=O)ccc3s2)c1)c1cc(OC2CC2)cc(OC(F)(F)F)c1 [Example 15, N-(3-chloro-5-(2-(3-cyclopropoxy-5-(trifluoromethoxy)phenyl)propan-2-yl)phenyl)-5-(2-(methylsulfonyl)propan-2-yl)benzo[b]thiophene-2-carboxamide]
0.0025 | > 50 | 0.24 | Cn1cccc1C(C)(C)c1cc(Cl)cc(NC(=O)c2cc3cc(C(C)(C)S(C)(=O)=O)ccc3s2)c1 [Example 31, N-(3-chloro-5-(2-(1-methyl-1H-pyrrol-2-yl)propan-2-yl)phenyl)-5-(2-(methylsulfonyl)propan-2-yl)benzo[b]thiophene-2-carboxamide]
0.01 | > 50 | 0.076 | Cc1csc(C(C)(C)c2cc(Cl)cc(NC(=O)c3cc4cc(C(C)(C)S(C)(=O)=O)ccc4s3)c2)c1 [Example 32, N-(3-chloro-5-(2-(4-methylthiophen-2-yl)propan-2-yl)phenyl)-5-(2-(methylsulfonyl)propan-2-yl)benzo[b]thiophene-2-carboxamide]
0.064 | 42.1 | 0.25 | CC(C)(c1ccc(Cl)cc1)c1cc(Cl)cc(NC(=O)c2cc3cc(CS(C)(=N)=O)ccc3s2)c1 (stereo not drawn) [Example 36, N-(3-chloro-5-(2-(4-chlorophenyl)propan-2-yl)phenyl)-5-((S-methylsulfonimidoyl)methyl)benzo[b]thiophene-2-carboxamide]
0.0089 | > 50 | 0.031 | CC(C)(c1ccc2sc(C(=O)Nc3cc(Br)cc(Oc4ccc(Cl)cc4)c3)cc2c1)S(C)(=O)=O [Example 39, N-(3-bromo-5-(4-chlorophenoxy)phenyl)-5-(2-(methylsulfonyl)propan-2-yl)benzo[b]thiophene-2-carboxamide]
0.027 | > 50 | 0.2 | COCCS(=O)(=O)C(C)(C)c1ccc2sc(C(=O)Nc3cc(Cl)cc(Oc4ccc(Cl)cc4)c3)cc2c1 [Example 57, N-(3-chloro-5-(4-chlorophenoxy)phenyl)-5-(2-((2-methoxyethyl)sulfonyl)propan-2-yl)benzo[b]thiophene-2-carboxamide]
0.02 | > 50 | 0.034 | CC(C)(c1ccc2sc(C(=O)Nc3cc(Cl)nc(Oc4cc(Cl)cc(Cl)c4)c3)cc2c1)S(C)(=O)=O [Example 62, N-(2-chloro-6-(3,5-dichlorophenoxy)pyridin-4-yl)-5-(2-(methylsulfonyl)propan-2-yl)benzo[b]thiophene-2-carboxamide]
0.011 | > 50 | 0.03 | CC(C)(c1ccc2sc(C(=O)Nc3cc(Cl)nc(Oc4ccc(F)cc4)c3)cc2c1)S(C)(=O)=O [Example 68, N-(2-chloro-6-(4-fluorophenoxy)pyridin-4-yl)-5-(2-(methylsulfonyl)propan-2-yl)benzo[b]thiophene-2-carboxamide]
0.01 | > 50 | 0.015 | CC(C)(c1ccc2sc(C(=O)Nc3cc(Br)nc(Oc4ccc(Cl)cc4)c3)cc2c1)S(C)(=O)=O [Example 69, N-(2-bromo-6-(4-chlorophenoxy)pyridin-4-yl)-5-(2-(methylsulfonyl)propan-2-yl)benzo[b]thiophene-2-carboxamide]
0.024 | > 50 | 0.057 | COc1cc(Cl)cc(Oc2cc(NC(=O)c3cc4cc(C(C)(C)S(C)(=O)=O)ccc4s3)cc(Cl)n2)c1 [Example 70, N-(2-chloro-6-(3-chloro-5-methoxyphenoxy)pyridin-4-yl)-5-(2-(methylsulfonyl)propan-2-yl)benzo[b]thiophene-2-carboxamide]
0.13 | > 50 | 0.45 | O=C(Nc1cc(Cl)nc(Oc2ccc(Cl)cc2)c1)c1cc2cc(C3CCCS3(=O)=O)ccc2s1 (stereo not drawn) [Example 73, N-(2-chloro-6-(4-chlorophenoxy)pyridin-4-yl)-5-(1,1-dioxidotetrahydrothiophen-2-yl)benzo[b]thiophene-2-carboxamide]
0.12 | > 50 | 0.61 | O=C(Nc1cc(Cl)nc(Oc2ccc(Cl)cc2)c1)c1cc2cc(C3CCCCS3(=O)=O)ccc2s1 (stereo not drawn) [Example 74, N-(2-chloro-6-(4-chlorophenoxy)pyridin-4-yl)-5-(1,1-dioxidotetrahydro-2H-thiopyran-2-yl)benzo[b]thiophene-2-carboxamide]
0.1 | > 50 | 0.052 | CC(C)(c1ccc2sc(C(=O)Nc3cc(F)nc(Oc4ccc(Cl)cc4)c3)cc2c1)S(C)(=O)=O [Example 77, N-(2-(4-chlorophenoxy)-6-fluoropyridin-4-yl)-5-(2-(methylsulfonyl)propan-2-yl)benzo[b]thiophene-2-carboxamide]
0.05 | > 50 | 0.2 | CC(C)(c1ccc2sc(C(=O)Nc3cc(Cl)nc(OC4CC5C=CC4C5)c3)cc2c1)S(C)(=O)=O (stereo not drawn) [Example 78, N-(2-(bicyclo[2.2.1]hept-5-en-2-yloxy)-6-chloropyridin-4-yl)-5-(2-(methylsulfonyl)propan-2-yl)benzo[b]thiophene-2-carboxamide]
0.19 | > 50 | 1.5 | CC(C)(c1ccc2sc(C(=O)N3CCOc4c(Cl)cc(Oc5ccc(Cl)cc5)cc43)cc2c1)S(C)(=O)=O [Example 96, (8-chloro-6-(4-chlorophenoxy)-2,3-dihydro-4H-benzo[b][1,4]oxazin-4-yl)(5-(2-(methylsulfonyl)propan-2-yl)benzo[b]thiophen-2-yl)methanone]
